Results as given in US10799496B2, “Naphthylenyl compounds for long-acting injectable compositions and related methods” (priority 2018, dated 2020).

Test: Whole blood stability assay
Format: in vitro ADME
Settings: prodrug 50 nM, fresh pooled human whole blood, 37 degrees C.; read-out: t1/2 at 37 degrees C. in human whole blood
Method: Naltrexone prodrug stability was assessed using freshly collected whole blood (within 24-hr collection) from pooled human (n=3) donors. The incubation mixtures were prepared by spiking the prodrugs into pre-warmed (37 degrees C.) fresh whole blood to a final concentration of 50 nM. After gentle mixing, aliquots of incubation mixtures were immediately transferred into four different 96-deep well plates. One plate was used for each time point. The plates were incubated at 37 degrees C. at a shaking speed of 100 rpm. At time points 15, 30, 60 and 120 minutes, the reaction was quenched by addition of a mixture of water and acetonitrile containing the internal standard (naltrexone-D3). Time point 0 minutes was prepared separately by spiking the prodrugs into a quenched whole blood to obtain a final concentration of 50 nM. All samples were vortexed at a low speed for 15 min and centrifuged at 3900 rpm for 15 min. Supernatants were transferred into 96-well plates for LC-MS/MS analysis to monitor the depletion of the prodrugs and the formation of naltrexone.
The amount of remaining prodrug and released naltrexone for each sample was quantitated against the calibration curves prepared with the whole blood. The human whole blood was purchased from BioreclamationIVT (Westbury, N.Y., USA). Naltrexone-D3 was purchased from CERILLIANT® (Round Rock, Tex., USA). […] Where multiple runs have been completed, average values are reported.

| Structure (SMILES) | half-life at 50 nM [min] |
| --- | --- |
| O=C(CCc1ccc2cc(CCC(=O)Oc3ccc4c5c3O[C@H]3C(=O)CC[C@@]6(O)[C@@H](C4)N(CC4CC4)CC[C@]536)ccc2c1)Oc1ccc2c3c1O[C@H]1C(=O)CC[C@@]4(O)[C@@H](C2)N(CC2CC2)CC[C@]314 [Compound 8, bis((4R,4aS,7aR,12bS)-3-(cyclopropylmethyl)-4a-hydroxy-7-oxo-2,3,4,4a,5,6,7,7a-octahydro-1H-4,12-methanobenzofuro[3,2-e]isoquinolin-9-yl) 3,3′-(naphthalene-2,6-diyl)dipropionate] | 26.3 |
| O=C(Cc1ccc2c(Cl)c(CC(=O)Oc3ccc4c5c3O[C@H]3C(=O)CC[C@@]6(O)[C@@H](C4)N(CC4CC4)CC[C@]536)ccc2c1Cl)Oc1ccc2c3c1O[C@H]1C(=O)CC[C@@]4(O)[C@@H](C2)N(CC2CC2)CC[C@]314 [Compound 6, bis((4R,4aS,7aR,12bS)-3-(cyclopropylmethyl)-4a-hydroxy-7-oxo-2,3,4,4a,5,6,7,7a-octahydro-1H-4,12-methanobenzofuro[3,2-e]isoquinolin-9-yl) 2,2′-(1,5-dichloronaphthalene-2,6-diyl)diacetate] | 25.7 |
| Cc1c(CC(=O)Oc2ccc3c4c2O[C@H]2C(=O)CC[C@@]5(O)[C@@H](C3)N(CC3CC3)CC[C@]425)ccc2c(C)c(CC(=O)Oc3ccc4c5c3O[C@H]3C(=O)CC[C@@]6(O)[C@@H](C4)N(CC4CC4)CC[C@]536)ccc12 [Compound 7, bis((4R,4aS,7aR,12bS)-3-(cyclopropylmethyl)-4a-hydroxy-7-oxo-2,3,4,4a,5,6,7,7a-octahydro-1H-4,12-methanobenzofuro[3,2-e]isoquinolin-9-yl) 2,2′-(1,5-dimethylnaphthalene-2,6-diyl)diacetate] | 58.6 |
| O=C(Cc1cccc2c(CC(=O)Oc3ccc4c5c3O[C@H]3C(=O)CC[C@@]6(O)[C@@H](C4)N(CC4CC4)CC[C@]536)cccc12)Oc1ccc2c3c1O[C@H]1C(=O)CC[C@@]4(O)[C@@H](C2)N(CC2CC2)CC[C@]314 [Compound 1, bis((4R,4aS,7aR,12bS)-3-(cyclopropylmethyl)-4a-hydroxy-7-oxo-2,3,4,4a,5,6,7,7a-octahydro-1H-4,12-methanobenzofuro[3,2-e]isoquinolin-9-yl) 2,2′-(naphthalene-1,5-diyl)diacetate] | 26.4 |
| O=C(Cc1cccc2cccc(CC(=O)Oc3ccc4c5c3O[C@H]3C(=O)CC[C@@]6(O)[C@@H](C4)N(CC4CC4)CC[C@]536)c12)Oc1ccc2c3c1O[C@H]1C(=O)CC[C@@]4(O)[C@@H](C2)N(CC2CC2)CC[C@]314 [Compound 9, bis((4R,4aS,7aR,12bS)-3-(cyclopropylmethyl)-4a-hydroxy-7-oxo-2,3,4,4a,5,6,7,7a-octahydro-1H-4,12-methanobenzofuro[3,2-e]isoquinolin-9-yl) 2,2′-(naphthalene-1,8-diyl)diacetate] | 40.9 |
| COc1c(CC(=O)Oc2ccc3c4c2O[C@H]2C(=O)CC[C@@]5(O)[C@@H](C3)N(CC3CC3)CC[C@]425)ccc2c(OC)c(CC(=O)Oc3ccc4c5c3O[C@H]3C(=O)CC[C@@]6(O)[C@@H](C4)N(CC4CC4)CC[C@]536)ccc12 [Compound 4, bis((4R,4aS,7aR,12bS)-3-(cyclopropylmethyl)-4a-hydroxy-7-oxo-2,3,4,4a,5,6,7,7a-octahydro-1H-4,12-methanobenzofuro[3,2-e]isoquinolin-9-yl) 2,2′-(1,5-dimethoxynaphthalene-2,6-diyl)diacetate] | 28.9 |
